Measured values taken from paper PMC7316778 (Nature Communications, 2020).

How the values were obtained:
[1] = target: FES^S700C (Homo sapiens, UniProt P07332, S700C); test: In vitro TR-FRET kinase assay; format: biochemical; set-up: human FES cDNA encoding residues 448–822 or human FER cDNA encoding residues 448–820 was amplified by PCR; made in house; host or cells: E. coli BL21(DE3), co-expressing YopH phosphatase
[2] = target: T1, FES^WT (Homo sapiens, UniProt P07332); test: In vitro TR-FRET kinase assay; format: biochemical; details: TR-FRET assay, 5 µM ATP; n = 3
T1 construct: human FES cDNA encoding residues 448–822 or human FER cDNA encoding residues 448–820 was amplified by PCR; made in house; host or cells: E. coli BL21(DE3), co-expressing YopH phosphatase
T1 sequence (P07332 448-822): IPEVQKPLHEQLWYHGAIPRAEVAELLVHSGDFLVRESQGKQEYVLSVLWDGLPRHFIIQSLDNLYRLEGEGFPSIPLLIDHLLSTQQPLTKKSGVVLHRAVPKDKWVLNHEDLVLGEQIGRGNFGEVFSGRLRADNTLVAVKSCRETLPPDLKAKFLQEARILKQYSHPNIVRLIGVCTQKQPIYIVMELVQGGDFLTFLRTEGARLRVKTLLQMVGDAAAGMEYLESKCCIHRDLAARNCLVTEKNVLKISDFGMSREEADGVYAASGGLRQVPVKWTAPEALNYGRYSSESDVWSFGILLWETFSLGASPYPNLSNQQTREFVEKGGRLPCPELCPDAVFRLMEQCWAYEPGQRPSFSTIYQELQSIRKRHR
Description: All measurements were performed in triplicate.

FES^S700C, sequence (P07332 448-822 S700C): as the sequence (P07332 448-822) above, with S253C counted along it

C=CC(=O)Nc1cccc(Nc2nc(Nc3ccccc3OC)ncc2Cl)c1 [Compound 3] was tested, and the Apparent fold selectivity ([1]; IC50 on FES^WT divided by IC50 on FES^S700C) was 0.65 fold, the “pIC50 FES^S700C” value ([1]; TR-FRET assay, 5 µM ATP, n = 3) was 6.3 ± 0.06 and the “pIC50 FES^WT” value [2] was 6.5 ± 0.06.
